From the supplement of paper PMC10307832

Key:
Assay in all cases: relative viability (nuclei count vs DMSO), 5 days (fraction); higher = more cells survive
VE-821 + Lapatinib = compound: CS(=O)(=O)c1ccc(-c2cnc(N)c(C(=O)Nc3ccccc3)n2)cc1 [VE-821] + CS(=O)(=O)CCNCc1ccc(-c2ccc3ncnc(Nc4ccc(OCc5cccc(F)c5)c(Cl)c4)c3c2)o1 [Lapatinib] (partner 2 µM)
How it was run: (§1)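 Five library-drug doses in √10 steps were combined with a fixed anchor-drug dose, or a single drug was given alone, by pin tool to lung cancer cell lines in 1536-well plates the day after seeding. Nuclei were stained and counted after 5 days. Relative viability is the nuclei count in treated wells over that in vehicle wells, taken as the median of duplicate plates.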

Ruxolitinib + Pictilisib = compound: N#CC[C@H](C1CCCC1)n1cc(-c2ncnc3[nH]ccc23)cn1 [Ruxolitinib] + CS(=O)(=O)N1CCN(Cc2cc3nc(-c4cccc5[nH]ncc45)nc(N4CCOCC4)c3s2)CC1 [Pictilisib] (partner 1 µM)
How it was run: as §1

VE-821 + AZD7762 = compound: CS(=O)(=O)c1ccc(-c2cnc(N)c(C(=O)Nc3ccccc3)n2)cc1 [VE-821] + NC(=O)Nc1cc(-c2cccc(F)c2)sc1C(=O)N[C@H]1CCCNC1 [AZD7762] (partner 0.2 µM)
How it was run: as §1

VE-821 + Luminespib = compound: CS(=O)(=O)c1ccc(-c2cnc(N)c(C(=O)Nc3ccccc3)n2)cc1 [VE-821] + CCNC(=O)c1noc(-c2cc(C(C)C)c(O)cc2O)c1-c1ccc(CN2CCOCC2)cc1 [Luminespib] (partner 0.01 µM)
How it was run: as §1

| Cell Line | relative viability (VE-821 + Lapatinib; first compound 0.08 µM) | relative viability (VE-821 + Lapatinib; first compound 0.253 µM) | relative viability (VE-821 + Lapatinib; first compound 0.8 µM) | relative viability (VE-821 + Lapatinib; first compound 2.53 µM) | relative viability (VE-821 + Lapatinib; first compound 8 µM) | relative viability (Ruxolitinib + Pictilisib; first compound 0.08 µM) | relative viability (Ruxolitinib + Pictilisib; first compound 0.253 µM) | relative viability (Ruxolitinib + Pictilisib; first compound 0.8 µM) | relative viability (Ruxolitinib + Pictilisib; first compound 2.53 µM) | relative viability (Ruxolitinib + Pictilisib; first compound 8 µM) | relative viability (VE-821 + AZD7762; first compound 0.08 µM) | relative viability (VE-821 + AZD7762; first compound 0.8 µM) | relative viability (VE-821 + AZD7762; first compound 2.53 µM) | relative viability (VE-821 + AZD7762; first compound 8 µM) | relative viability (VE-821 + Luminespib; first compound 0.08 µM) | relative viability (VE-821 + Luminespib; first compound 0.253 µM) | relative viability (VE-821 + Luminespib; first compound 0.8 µM) | relative viability (VE-821 + Luminespib; first compound 2.53 µM) | relative viability (VE-821 + Luminespib; first compound 8 µM) | relative viability (VE-821 + AZD7762; first compound 0.253 µM) |
| --- | --- | --- | --- | --- | --- | --- | --- | --- | --- | --- | --- | --- | --- | --- | --- | --- | --- | --- | --- | --- |
| EBC-1 | 0.241 | 0.195 | 0.209 | 0.216 | 0.265 | 0.386 | 0.309 | 0.583 | 0.353 | 0.32 | – | – | – | – | – | – | – | – | – | – |
| NCI-H1648 | – | – | – | – | – | – | – | – | – | – | 0.582 | 0.49 | 0.473 | 0.319 | – | – | – | – | – | – |
| NCI-H1623 | – | – | – | – | – | – | – | – | – | – | – | – | – | – | 0.588 | 0.473 | 0.605 | 0.509 | 0.505 | – |
| NCI-H661 | 0.592 | 0.427 | 0.396 | 0.486 | 0.381 | 0.41 | 0.322 | 0.379 | – | 0.465 | – | – | – | – | 0.88 | 0.944 | 0.958 | 0.914 | 0.803 | – |
| IA-LM | 1.03 | 0.744 | 0.821 | 0.83 | 0.501 | 0.349 | 0.35 | 0.387 | 0.544 | 0.46 | – | – | – | – | – | – | – | – | – | – |
| Calu-6 | 1.21 | 1.05 | 1.1 | 0.89 | 0.551 | 0.99 | 0.943 | 0.958 | 0.828 | 0.667 | – | – | – | – | – | – | – | – | – | – |
| NCI-H2342 | – | – | – | – | – | – | – | – | – | – | 0.494 | 0.426 | 0.388 | 0.384 | 0.8 | 0.65 | 0.552 | 0.708 | 0.717 | 0.642 |
| ChaGo-K-1 | – | – | – | – | – | – | 0.555 | 0.668 | 0.776 | 0.727 | 0.884 | 0.866 | 0.747 | 0.48 | 0.537 | 0.481 | 0.445 | 0.582 | 0.312 | 0.729 |
| NCI-H1299 | 0.948 | 0.885 | 0.915 | 0.913 | 0.771 | 0.773 | 0.761 | 0.883 | 0.716 | 0.504 | – | – | – | – | – | – | – | – | – | – |
| SW 1573 | 1.12 | 1.07 | 1.12 | 0.58 | 0.989 | 0.495 | 0.425 | 0.546 | 0.445 | 0.429 | – | – | – | – | 0.21 | 0.228 | 0.214 | 0.226 | 0.165 | – |
| NCI-H2009 | 0.89 | 0.959 | 0.893 | 0.997 | 0.977 | 0.913 | 0.901 | 0.987 | 0.508 | 0.658 | – | – | – | – | 1.03 | 0.974 | 0.918 | 1.09 | 0.863 | – |
| NCI-H1703 | 1.21 | 1 | 1.06 | 0.547 | 0.328 | 0.255 | 0.265 | 0.232 | 0.24 | 0.205 | 0.0991 | 0.14 | 0.119 | 0.1 | – | – | – | – | – | 0.11 |
